In patent US11517570B2 (Kronos Bio, Inc., priority 2013, dated 2022):

The compounds below were run on human hepatocytes (assay: Human Hepatocyte Stability Assay). Conditions: comparison table with known compounds; head prints "(units)", L/hr/kg from the method.
Assay type: in vitro ADME
Protocol: The human […] stability of the compounds as predicted hepatocyte clearance in L/hr/kg was assessed. Compounds to be tested were diluted to 200 μM (4 μl of 10 mM DMSO stock into 196 μl ACN:H2O (50:50). Propranolol was used as a positive control, and buffer only without hepatocytes as 0% control. These were further diluted 4 μl with 891 μl KHB buffer (InVitroGRO catalog number Z99074) to provide 2× dosing solution. To each well of 24 well plate, 250 μl of the 2× dosing solution was added to each well with 250 μl of hepatocytes cells (1×10^6 viable cells/ml per well) or KHB for control samples to achieve a final compound concentration of 1 μM during incubation. The final solvent concentration was 0.01% DMSO and 0.25% ACN. The culture plate was placed on a rocker and incubated at 37° C., 5% CO2. Samples were collected at time 0, 1, 3, and 6 hours. The loss of parent compound was determined using LC-MS methods against a standard curve.

SMILES	Hheps CL [mL/min/kg]
Nc1cncc(-c2cn3ccnc3c(Nc3ccc(N4CCN(CC(CO)CO)CC4)cc3)n2)n1 [Ex.-6, 2-((4-(4-((6-(6-aminopyrazin-2-yl)imidazo[1,2-a]pyrazin-8-yl)amino)phenyl)piperazin-1-yl)methyl)propane-1,3-diol]	1.3
Nc1cncc(-c2cn3ccnc3c(Nc3ccc(N4CCN(C5COC5)CC4)cc3)n2)n1 [Ex.-2, 6-(6-aminopyrazin-2-yl)-N-(4-(4-(oxetan-3-yl)piperazin-1-yl)phenyl)imidazo[1,2-a]pyrazin-8-amine]	0.917
Cc1c(-c2cncc(N)n2)nc(Nc2ccc(N3CCN(C4COC4)CC3)cc2)c2nccn12 [Ex.-4, 6-(6-aminopyrazin-2-yl)-5-methyl-N-(4-(4-(oxetan-3-yl)piperazin-1-yl)phenyl)imidazo[1,2-a]pyrazin-8-amine]	1.3
Nc1cncc(-c2cn3ccnc3c(Nc3ccc(N4CCN(C5COC5)CC4)c(OCCO)c3)n2)n1 [Ex.-5, 2-(5-((6-(6-aminopyrazin-2-yl)imidazo[1,2-a]pyrazin-8-yl)amino)-2-(4-(oxetan-3-yl)piperazin-1-yl)phenoxy)ethanol]	1.2
COc1ccc(Nc2nc(-c3cccc(N)c3)cn3ccnc23)cc1OC [6-(3-aminophenyl)-N-(3,4-dimethoxyphenyl)imidazo[1,2-a]pyrazin-8-amine, reference compound]	4
COc1ccc(Nc2nc(-c3ccc(N)nc3)cn3ccnc23)cc1OC [6-(6-aminopyridin-3-yl)-N-(3,4-dimethoxyphenyl)imidazo[1,2-a]pyrazin-8-amine, reference compound]	15
Cc1ncc(-c2cn3ccnc3c(Nc3ccc(N4CCOCC4)cc3)n2)cc1N [6-(5-amino-6-methylpyridin-3-yl)-N-(4-morpholinophenyl)imidazo[1,2-a]pyrazin-8-amine, reference compound]	13.3
Nc1cncc(-c2cn3ccnc3c(Nc3ccc(N4CCOCC4)cc3)n2)c1 [6-(5-aminopyridin-3-yl)-N-(4-morpholinophenyl)imidazo[1,2-a]pyrazin-8-amine, reference compound]	11.3
Cc1ncc(-c2cn3ccnc3c(Nc3ccc(N4CCN(C5COC5)CC4)cc3)n2)nc1N [Ex.-1, 6-(6-amino-5-methylpyrazin-2-yl)-N-(4-(4-(oxetan-3-yl)piperazin-1-yl)phenyl)imidazo[1,2-a]pyrazin-8-amine]	2
Nc1cncc(-c2cn3ccnc3c(Nc3ccc(N4CCO[C@@H](CO)C4)cc3)n2)n1 [Ex.-3, (R)-(4-(4-((6-(6-aminopyrazin-2-yl)imidazo[1,2-a]pyrazin-8-yl)amino)phenyl)morpholin-2-yl)methanol]	1.5
Cc1ncc(-c2cn3ccnc3c(Nc3ccc(N4CCN(C5COC5)CC4)c(OCCO)c3)n2)nc1N [Ex.-7, 2-(5-((6-(6-amino-5-methylpyrazin-2-yl)imidazo[1,2-a]pyrazin-8-yl)amino)-2-(4-(oxetan-3-yl)piperazin-1-yl)phenoxy)ethanol]	0.83
